Measurements reported in US20090305954A1, “HISTIDINE-CONTAINING DIASTEREOMERIC PEPTIDES AND USES THEREOF” (Yeda Research and Development Co. Ltd., priority 2005, published 2009).
Converted amounts (≈) assume the structure as drawn. Where two headings read alike, the source gives them in different places. Square brackets hold non-standard residues; d marks the D form. Ends that are not written are not given here. Peptide text beside a SMILES is read from it.

Tests used:
[1] = tested on: CL1 human prostate carcinoma cell line; assay: XTT proliferation (cytotoxicity) assay, CL1; type: cell-based
Procedure: (§1) The CL1 human prostate carcinoma (PC) cell line is an androgen-independent (AI) subclone of LNCaP cell line, which was generated by culturing androgen-dependent (AD) LNCaP cells in charcoal-stripped, […], as described (Patel et al. 2000). 22RV1 human PC cells are AI sub-clones of the AD prostatic adenocarcinoma CWR22 xenograft (Sramkoski et al. 1999). CL1 and 22RV1 (ATCC, USA) were grown in RPMI-1640 supplemented with 10% FCS (Biological Industries, Beit Haemek, Israel). PC3 and DU145 are androgen-insensitive (AI) (non-responsive), invasive human prostate cancer cell lines. NIH-3T3 mouse fibroblast cell lines (ATCC, USA) were grown in DMEM supplemented with 10% BS. Murine Lewis lung carcinoma (LLC) cell lines were also grown in DMEM medium supplemented with 10% fetal calf serum and antibiotics under the same conditions as above.
(§2) The anticancer activity of the diastereomers 1, 5 and 11-16, 36-39, 42 and 44 was examined against human CL1 prostate cancer, murine LLC (Lewis lung carcinoma), DU 145 and PC3 cell lines. The cell selectivity of the diastereomeric peptides was also studied by examining their effect on NIH-3T3 normal mouse fibroblasts cell line.
(§3) A 96-well plate (Falcon) was used for the XTT proliferation assay. Cancer cells were grown for 24 hours (day 1) in RPMI-1640 medium ([…] cells/100 μl for LLC, CL1, 22RVI, DU 145 and PC3, respectively) supplemented with 10% fetal calf serum and antibiotics, at 37° C., in humidified atmosphere at 5% CO2 and 95% air, resulting in growth medium pH of 7.4. NIH-3T3 fibroblast cells (1×10^4 cells/100 μl) were grown in DMEM medium supplemented with 10% bovine calf serum and antibiotics under the same conditions as described above for the cancerous cells. Wells in the last two rows served as blanks (medium only, for measuring the background color of the medium) and 100% survival controls (cells and medium only without treatment), respectively.
(§4) In day 2, the peptides were dissolved in sterile PBS to a concentration of 200 μM (or 500 μM). The medium in the assay wells was replaced with 100 μl serum free medium. For the assays at pH 6, the medium was initially concentrated (×5 or ×10) and then diluted with double distilled water and addition of sodium carbonate. Before reaching the correct dilution, the medium was adjusted to pH 6 and then more water was added to reach the final dilution. The cells were grown in physiological pH, and the acidic pH was used only during the 24 hours incubation with the peptides. A sign for the correct acidity was a light yellow color of the medium. In line A of the plate, 160 μl of serum free medium was added, if the initial peptide concentration was 500 μM.
(§5) Peptide solutions, 100 μl (or 40 μl) were added to each assay well in line A, such that the final concentration of the peptide was […] and the volume 200 μl. The medium in the wells was mixed with multichannel pipette 5 times and 100 μl of it were transferred to the next row of wells (line B), to give a peptide concentration of 50 μM. The double dilution of the peptides continued downstream the plate in the same manner. The plates were then incubated for 24 h.
(§6) In day 3, XTT reaction solution was prepared by adding to 100 μl aliquots of activation solution (sodium 3′-[1-(phenyl-aminocarbonyl)-3,4-tetrazolium]-bis(4-methoxy-6-nitro) benzene sulfonic acid hydrate and N-methyl dibenzopyrazine methyl sulfate; mixed in a proportion of 50:1) (protected from light and kept in −20° C.), the substrate. 50 μl of XTT reaction solution were added to each well and the plates were incubated for 2 hours (37° C. and 5% CO2+95% air. In cases the incubation was not enough for the creation of the color, it was extended for up to 24 hours). The optical density was read at wavelength of 450 nm in an ELISA plate reader. Cell viability was determined relative to the control and final results were recorded. The results were confirmed using replications in at least three independent experiments. […]

22RV1 human PC cells = assay: XTT proliferation (cytotoxicity) assay, 22RV1; type: cell-based
Procedure: as §1, §3, §4, §5
In day 3, XTT reaction solution was prepared by adding to 100 μl aliquots of activation solution (sodium 3′-[1-(phenyl-aminocarbonyl)-3,4-tetrazolium]-bis(4-methoxy-6-nitro) benzene sulfonic acid hydrate and N-methyl dibenzopyrazine methyl sulfate; mixed in a proportion of 50:1) (protected from light and kept in −20° C.), the substrate. 50 μl of XTT reaction solution were added to each well and the plates were incubated for 2 hours (37° C. and 5% CO2+95% air. In cases the incubation was not enough for the creation of the color, it was extended for up to 24 hours). The optical density was read at wavelength of 450 nm in an ELISA plate reader. Cell viability was determined relative to the control and final results were recorded. The results were confirmed using replications in at least three independent experiments. The LC50 for each peptide was obtained from the curve of cell viability versus concentration of peptide and taken from the concentration at which cell viability was 50%. The data shown in Table 1 are for only one experiment, but representative of all replications.

[2] = tested on: PC3 human prostate cancer cell line; assay: XTT proliferation (cytotoxicity) assay, PC3; type: cell-based; conditions: PC3, pH 7.4, 24 h
Procedure: as §1, §2
A 96-well plate (Falcon) was used for the XTT proliferation assay. Cancer cells were grown for 24 hours (day 1) in RPMI-1640 medium (5×10^3, 7×10^3, 1×10^4 and 7×10^3 cells/100 μl for LLC, CL1, 22RVI, DU 145 and PC3, respectively) supplemented with 10% fetal calf serum and antibiotics, at 37° C., in humidified atmosphere at 5% CO2 and 95% air, resulting in growth medium pH of 7.4. […]
In day 3, XTT reaction solution was prepared by adding to 100 μl aliquots of activation solution (sodium 3′-[1-(phenyl-aminocarbonyl)-3,4-tetrazolium]-bis(4-methoxy-6-nitro) benzene sulfonic acid hydrate and N-methyl dibenzopyrazine methyl sulfate; mixed in a proportion of 50:1) (protected from light and kept in −20° C.), the substrate. […] The optical density was read at wavelength of 450 nm in an ELISA plate reader. Cell viability was determined relative to the control and final results were recorded. […]

[3] = tested on: Murine Lewis lung carcinoma (LLC) cell line; assay: XTT proliferation (cytotoxicity) assay, LLC; type: cell-based
Procedure: as §1, §2, §3, §4, §5, §6

[4] = XTT proliferation (cytotoxicity) assay, normal fibroblasts; type: cell-based, mouse; conditions: mouse, NIH-3T3 normal mouse fibroblasts, read-out: Lethal Concentration (LC50)
Procedure: as §1, §2, §3, §4, §5, §6

[5] = tested on: DU145 human prostate cancer cell line; assay: XTT proliferation (cytotoxicity) assay, DU145; type: cell-based
Procedure: as §1, §2, §3, §4, §5, §6

[6] = Acute toxicity test in mice (intravenous); type: in vivo; conditions: for mortality: mice
Procedure: Acute toxicity of peptides 1, 13 and 16 was examined by intravenously injecting mice (n=3), each with one dose per day for 2 days of 0.5 ml solution containing peptides 1, 13 or 16 at 3, 9, 15, 20 and 30 mg/kg of body weight.
A week after injecting the peptides, blood samples were taken from the survived mice. […] Thus, the peptides 13 and 16 of the invention are not toxic even when administered at concentrations considerably higher than those necessary for their anticancer activity.

[7] = tested on: NIH-3T3 normal mouse fibroblasts cell line; assay: XTT proliferation (cytotoxicity) assay, normal fibroblasts; type: cell-based; conditions: NIH3T3, pH 7.4, 24 h
Procedure: as §1, §2, §3, §4, §5, §6

[8] = tested on: AI CL1 human PC cells xenograft; assay: Inhibition of tumor growth in human prostate cancer xenografts, CL1; type: in vivo, nude male mice; conditions: CL1 xenograft, 1 mg/kg intratumorally, 9 doses
Procedure: (§7) (i) Inhibition of tumor growth in human prostate cancer xenografts. Subcutaneouse (s.c.) implantation of human PC cells in mice was done as previously described in Gavish et al. (Gavish et al. 2002). Briefly, 0.1 ml AI CL1 or 22RV1 human PC cells (5×10^6 cells) in Matrigel were inoculated s.c. into the dorsal side of five to six week-old nude male mice weighing 20-25 g (Harlen Co., Israel). Two weeks after cell implantation, when the tumors diameter reached ≧5 mm (denoted as day 1), the diastereomer 13 and its all L-amino acid analog peptide (at 1 mg/kg, 0.1 mM), or vehicle (PBS, pH=7.4) were injected intratumorally (dosing volume of 2.5 ml/kg) three times a week for a total of 9 doses. Tumor size was measured by a caliper and recorded twice a week during a period of 28 days. Mice were weighed and tumor weight (mg) was estimated by using the formula of length×width×depth×0.52 in mm^3, assuming the specific gravity to be 1. At the end of the treatment, the mice were killed, and the tumors were removed, photographed, and weighed. The animal experimentation was conducted according to the rules of the Institutional Animal Care and Use Committee.

[9] = tested on: 22RV1 human PC cells xenograft; assay: Inhibition of tumor growth in human prostate cancer xenografts, 22RV1; type: in vivo, nude male mice; conditions: 22RV1 xenograft, 1 mg/kg intratumorally, 9 doses
Procedure: as §7
Serum PSA levels. Four weeks after the first treatment, blood was withdrawn from the 22RV1-inoculated mice in order to determine the level of prostate specific antigen (PSA). The blood samples were taken directly to heparin containing tubes, centrifuged, and the supernatants were stored at −20° C. The CanAg PSA EIA kit (CanAg Diagnostics) was used to determine the total PSA in the mice plasma (Gavish et al., 2002). Tumor weight and PSA levels, represented as the mean±SE, were calculated from the raw data and then subjected to Student's t test. A value of P<0.05 was considered as statistically significant.

[10] = Interaction with Matrigel matrix, analysed by RP-HPLC and mass spectroscopy; type: in vitro ADME; conditions: mixed with Matrigel matrix for one hour
[11] = i.v., 3 mg/kg, one dose per day for 2 days
[12] = i.v., 9 mg/kg, one dose per day for 2 days
[13] = i.v., 15 mg/kg, one dose per day for 2 days
[14] = i.v., 20 mg/kg, one dose per day for 2 days

Molecule | Lethal Concentration (LC50) ([1]; CL1, pH 7.4, 24 h) [µg/mL] | Lethal Concentration (LC50) (22RV1 human PC cells; 22RV1, pH 6, 24 h) [µg/mL] | Lethal Concentration (LC50) ([3]; pH 7.4, 24 h) [µg/mL] | CC50 at 24 h ([4]; NIH3T3, pH 6, 24 h) [µg/mL] | mortality [6, 11] | mortality [6, 12] | mortality [6, 13] | mortality [6, 14] | further results
CC(C)C[C@H](NC(=O)[C@H](CC(C)C)NC(=O)[C@@H](CCCCN)NC(=O)[C@H](CC(C)C)NC(=O)[C@H](CC(C)C)NC(=O)[C@H](CCCCN)NC(=O)[C@@H](CCCCN)NC(=O)[C@@H](CC(C)C)NC(=O)[C@H](CC(C)C)NC(=O)[C@@H](CCCCN)NC(=O)[C@H](CCCCN)NC(=O)[C@H](CC(C)C)NC(=O)[C@@H](CC(C)C)NC(=O)[C@H](CCCCN)NC(=O)[C@@H](N)CC(C)C)C(N)=O [Peptide 1, reference compound] (H-LK[dL]LK[dK]L[dL][dK]KLL[dK]LL-NH2) | 6.25 | 25 | 12.5 | 25 (≈ 13.9 µM) | No mortality | No mortality | 100% | 100% | Lethal Concentration (LC50) ([1]; CL1, pH 6, 24 h): 9.3 µg/mL; Lethal Concentration (LC50) (22RV1 human PC cells; 22RV1, pH 7.4, 24 h): 12.5 µg/mL; Lethal Concentration (LC50) [2]: 6.2 µg/mL; Lethal Concentration (LC50) ([3]; pH 6, 24 h): 12.5 µg/mL; CC50 at 24 h ([4]; NIH3T3, pH 7.4, 24 h): 50 µg/mL (≈ 27.7 µM); Lethal Concentration (LC50) ([5]; DU145, pH 6, 24 h): 4.7 µg/mL; Lethal Concentration (LC50) ([5]; DU145, pH 7.4, 24 h): 4.7 µg/mL; mortality ([6]; concentrations considerably higher than those necessary for anticancer activity): 100%
CC(C)C[C@H](NC(=O)[C@H](CC(C)C)NC(=O)[C@@H](Cc1c[nH]cn1)NC(=O)[C@H](CC(C)C)NC(=O)[C@H](CC(C)C)NC(=O)[C@H](Cc1c[nH]cn1)NC(=O)[C@@H](Cc1c[nH]cn1)NC(=O)[C@@H](CC(C)C)NC(=O)[C@H](CC(C)C)NC(=O)[C@@H](CCCCN)NC(=O)[C@H](Cc1c[nH]cn1)NC(=O)[C@H](CC(C)C)NC(=O)[C@@H](CC(C)C)NC(=O)[C@H](Cc1c[nH]cn1)NC(=O)[C@@H](N)CC(C)C)C(N)=O [Peptide 16] (H-LH[dL]LH[dK]L[dL][dH]HLL[dH]LL-NH2) | 12.5 | 12.5 | 50 | 25 (≈ 13.5 µM) | No mortality | No mortality | no mortality | no mortality | active concentration lower than against NIH-3T3 ([1]; CL1 vs NIH-3T3 at the same pH): at least two-fold lower; Lethal Concentration (LC50) [7]: 100 µg/mL; mortality ([6]; i.v., 30 mg/kg, one dose per day for 2 days): No mortality; blood differential and biochemistry tests ([6]; survived mice, a week after injection): in the range of normal values
LKLLHKLLKHLLKLL-NH2 [all L-amino acid analog peptide, reference compound] |  |  |  |  |  |  |  |  | tumor weight [8]: inactive; tumor weight [9]: inactive; activity preserved upon interaction with the Matrigel matrix [10]: fully inactivated
